Values quoted from earlier work, collected in US8362253B2, “Solid forms of N-[2,4-bis(1,1-dimethylethyl)-5-hydroxyphenyl]-1,4-dihydro-4-oxoquinoline-3-carboxamide” (Vertex Pharmaceutical Incorporated, priority 2007, dated 2013).

Test system: cystic fibrosis transmembrane conductance regulator (CFTR) protein
Conditions: cells from patients with CF, CFTR present on the cell surface; background statement

## CC(C)(C)c1cc(C(C)(C)C)c(NC(=O)c2c[nH]c3ccccc3c2=O)cc1O [Compound 1, N-[2,4-bis(1,1-dimethylethyl)-5-hydroxyphenyl]-1,4-dihydro-4-oxoquinoline-3-carboxamide]
  Function of defective CFTR channels: restored the function of defective CFTR channels
